In one experiment the target is T1, integrase of HIV-1 (Human immunodeficiency virus type 1 group M subtype B, UniProt P04585).
T1 construct: incubated for 30 minutes at 30° C. with integrase coupled with Cyanine 3 fluorochrome
In words: Nuclear import test on the integrase of HIV-1 in permeabilized HeLa cells. It is filed as cell-based. The settings on record: 30 minutes at 30° C., FIGS. 5 and 6. The protocol: FIGS. 5 and 6 show the quantification of the fluorescence intensity measured in a nuclear import test on the integrase of HIV-1 in permeabilized HeLa cells in the presence or absence of cytoplasmic extracts.
The import tests in FIG. 5 were carried out as described in Depienne et al. 2001. HeLa cells were permeabilized with Digitonin, then incubated for 30 minutes at 30° C. with integrase coupled with Cyanine 3 fluorochrome in the presence of energy, in the absence of cytosolic extracts and in the presence or absence of increasing concentrations of different molecules as indicated. The cells were then fixed, analyzed by epifluorescence microscopy and acquisitions were carried out with a CCD camera.
For each condition, the fluorescence intensity per surface unit was quantified in 150 to 300 nuclei originating from 3 independent experiments.
The data of FIGS. 6 and 7 were obtained as follows: HeLa cells were permeabilized with digitonin, then incubated for 30 minutes at 30° C. with integrase conjugated to Cyanine 3 fluorochrome and with bovine serum albumin (BSA) conjugated to the standard nuclear localization signal of the T antigen of the SV40 virus (NLS) and with fluorescein (BSA-NLS), in the presence of cytosolic extracts and energy and in the presence or in the absence of increasing concentrations of different molecules as indicated. […]

The target of another experiment is integrase (Human immunodeficiency virus type 1 group M subtype B, UniProt P04585). In words: Integrase inhibitor in vitro. It is filed as biochemical.
Another experiment relates to viral DNA. Description: Quantification of total viral DNA synthesized and of DNA integrated into the host cell genome after infection (Butler et al.). It is filed as cell-based. The note with it: FIG. 1. The protocol:
FIG. 1, the quantification of the total viral DNA synthesized 6 hours after infection and the quantity of viral DNA integrated into the genome 8 hours after infection, and
Study of the Quantification of the Total Viral DNA Synthesized and of the DNA Integrated into the Genome of a Host Cell after Infection
The operation described by Butler et al. in Nat. Med. 2001 May; 7 (5): 631-4 is carried out.

For the next experiment, the system named is virus. The settings on record: integrase mutations at V165 and V249, and at C280 for a second virus.

`COc1cc(/C=C/c2ccc3ccc(C(=O)[O-])c(O)c3n2)cc(O)c1O.[Na+]` [FZ41, 8-hydroxy-2-[2-[(3,4-dihydroxy,5-methoxyphenyl)ethenyl]]7-quinoline carboxylic acid]: the “nuclear import of integrase (fluorescence in the nuclei of permeabilized cells)” value on integrase of HIV-1 is on record as “considerably reduce”. In addition, at integrase, the “Integrase inhibitor in vitro” value was “YES”. Besides, the “total viral DNA synthesized” value in the experiment with viral DNA (6 hours after infection) was “strong reduction”. Moreover, in the experiment on viral DNA (8 hours after infection), the “viral DNA integrated into the genome” value was “strong reduction”. The “emergence of resistant viruses” value in the experiment with virus was “emergence of viruses resistant to the drug”.

Values taken from patent publication US7479497B2, “Use of quinoline derivatives with anti-integrase effect and applications thereof” (priority 2002, dated 2009).
